Results from the supplement of paper PMC10307832.

Key:
Assay in all cases: relative viability (nuclei count vs DMSO), 5 days (fraction); higher = more cells survive
[1] = compound: O=C(O)c1ccc2c(c1)nc(Nc1cccc(Cl)c1)c1ccncc12 [Silmitasertib] + N=C(N)NC(=N)NCCc1ccccc1 [Phenformin] (partner 250 µM)
Summary of the method: (§1)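 Values are medians from duplicate plates. Each reflects relative viability, defined as the nuclei count of treated wells over that of vehicle wells. Lung cancer cell lines in 1536-well plates were pin-tool dosed one day after seeding with one drug alone or with a fixed anchor-drug dose plus five library-drug doses (not always all listed) in √10 steps, then fixed, stained and imaged at 4× after 5 days.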

[2] = compound: O=C(O)c1ccc2c(c1)nc(Nc1cccc(Cl)c1)c1ccncc12 [Silmitasertib] + C[C@@H](Oc1cc(-c2cnn(C3CCNCC3)c2)cnc1N)c1c(Cl)ccc(F)c1Cl [Crizotinib] (partner 1 µM)
Summary of the method: as §1

[3] = compound: O=C(O)c1ccc2c(c1)nc(Nc1cccc(Cl)c1)c1ccncc12 [Silmitasertib] + C[C@]1(O)C[C@@H](c2nc(-c3ccc4ccc(-c5ccccc5)nc4c3)c3c(N)nccn32)C1 [Linsitinib] (partner 1 µM)
Summary of the method: as §1

[4] = compound: O=C(O)c1ccc2c(c1)nc(Nc1cccc(Cl)c1)c1ccncc12 [Silmitasertib] + COc1cc2c(Oc3ccc(NC(=O)C4(C(=O)Nc5ccc(F)cc5)CC4)cc3F)ccnc2cc1OCCCN1CCOCC1 [Foretinib] (partner 0.25 µM)
Summary of the method: as §1

Silmitasertib = compound: O=C(O)c1ccc2c(c1)nc(Nc1cccc(Cl)c1)c1ccncc12 [Silmitasertib]
Summary of the method: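 Five library-drug doses, separated by factors of √10, were pinned into 1536-well plates holding lung cancer cell lines after an overnight stay at 37 °C. Cells were fixed, permeabilised and Hoechst-stained in one step after 5 days without medium change, then imaged at 4×. Viability compares treated-well with vehicle-well nuclei, counted in MetaXpress, as a median across plates. Passing plates had control CV below 25% and at least one doubling.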

| Cell Line | relative viability ([1]; first compound 0.04 µM) | relative viability ([1]; first compound 0.4 µM) | relative viability ([1]; first compound 1.265 µM) | relative viability ([1]; first compound 4 µM) | relative viability ([2]; first compound 0.04 µM) | relative viability ([2]; first compound 0.4 µM) | relative viability ([2]; first compound 1.265 µM) | relative viability ([2]; first compound 4 µM) | relative viability ([3]; first compound 0.04 µM) | relative viability ([3]; first compound 0.4 µM) | relative viability ([3]; first compound 1.265 µM) | relative viability ([3]; first compound 4 µM) | relative viability ([4]; first compound 0.04 µM) | relative viability ([4]; first compound 0.4 µM) | relative viability ([4]; first compound 1.265 µM) | relative viability ([4]; first compound 4 µM) | relative viability (Silmitasertib; 0.04 µM) | relative viability (Silmitasertib; 0.4 µM) | relative viability (Silmitasertib; 1.265 µM) | relative viability (Silmitasertib; 4 µM) |
| --- | --- | --- | --- | --- | --- | --- | --- | --- | --- | --- | --- | --- | --- | --- | --- | --- | --- | --- | --- | --- |
| 201T | 0.421 | 0.426 | 0.469 | 0.449 | 0.999 | 0.991 | 1.07 | 1.18 | 1.03 | 1.02 | 0.889 | 1.01 | 1.2 | 1.19 | 1.09 | 1.21 | 1.08 | 0.994 | 1.02 | 1.06 |
| NCI-H3122 | 0.416 | 0.365 | 0.433 | 0.47 | 0.305 | 0.262 | 0.256 | 0.262 | 0.957 | 0.953 | 0.948 | 1.15 | 0.821 | 0.86 | 0.982 | 0.947 | 0.995 | 0.889 | 1.02 | 0.983 |
| A549 | 0.237 | 0.131 | 0.121 | 0.161 | 0.819 | 0.677 | 0.777 | 0.748 | 0.792 |  | 0.507 | 0.678 | 0.961 | 0.819 | 0.952 | 0.858 | 1.03 | 0.994 | 1 | 0.882 |
| NCI-H727 | 0.692 | 0.488 | 0.511 | 0.348 | 0.868 | 0.65 | 0.753 | 0.485 | 0.327 | 0.287 | 0.303 | 0.166 | 0.915 | 0.689 | 0.695 | 1.03 | 1.18 | 0.619 | 0.833 | 0.894 |
| NCI-H441 | 0.692 |  | 0.739 | 0.335 | 0.814 |  | 0.787 | 0.6 | 0.455 |  | 0.389 | 0.35 | 0.871 |  | 0.67 | 0.277 | 1 |  | 0.892 | 0.757 |
| HOP-62 | 0.624 |  | 0.662 | 0.608 | 0.914 |  | 0.943 | 0.49 | 0.973 |  | 0.998 | 0.703 | 1.1 |  | 1.18 | 1.14 | 1.09 |  | 1.12 | 0.542 |
| RERF-LC-KJ | 0.407 | 0.378 | 0.31 | 0.268 | 0.77 | 0.817 | 0.736 | 0.711 | 0.858 | 0.876 | 0.689 | 0.672 | 0.887 | 0.753 | 0.765 | 0.628 | 1.03 | 0.848 | 0.823 | 0.581 |
| HCC-44 | 0.267 | 0.234 | 0.117 | 0.12 | 0.729 | 0.697 | 0.839 | 0.771 | 0.7 | 0.673 | 0.665 | 0.691 |  |  |  |  | 1.03 | 0.963 | 1.03 | 0.544 |
| LCLC-103H | 0.314 | 0.307 | 0.32 | 0.23 | 1.03 | 1.06 | 1 | 0.713 | 1.09 | 1.19 | 1.04 | 0.796 | 0.828 | 0.74 | 0.632 | 0.625 | 0.986 | 0.99 | 0.945 | 0.628 |
| NCI-H1915 | 0.362 |  | 0.37 | 0.249 | 0.888 |  | 0.931 | 0.718 | 1.13 |  | 1.18 | 0.956 | 1.13 |  | 1.05 | 0.991 | 1.01 |  | 1.03 | 0.554 |
| ChaGo-K-1 | 0.532 | 0.349 | 0.446 | 0.319 | 1.35 | 1 | 1.07 | 0.931 |  |  |  |  | 0.99 | 0.731 | 0.876 | 0.971 | 1.07 | 0.735 | 0.96 | 0.885 |
| PC-14 | 0.641 |  | 0.547 | 0.125 | 0.932 | 0.897 | 0.888 | 0.847 | 0.966 | 0.999 | 1.01 | 0.993 | 1.05 | 1.02 | 0.965 | 0.461 | 1.2 | 0.703 | 1.02 | 0.735 |
| NCI-H1703 |  |  |  |  | 0.954 | 0.596 | 0.787 | 0.392 | 1.04 | 0.654 | 1.23 | 0.419 | 0.348 | 0.375 | 0.359 | 0.415 | 1.13 | 0.883 | 1.1 | 1.11 |
| NCI-H1793 | 0.396 | 0.29 | 0.346 | 0.373 |  |  |  |  | 1.24 | 0.914 | 0.735 | 0.79 | 0.757 | 0.62 | 0.427 | 0.607 | 1.09 | 0.654 | 0.771 | 0.529 |
| NCI-H1650 | 0.49 | 0.412 | 0.283 | 0.151 | 1.04 | 1 | 1 | 0.68 |  |  |  |  | 1.47 | 1.34 | 0.902 | 0.653 | 1.15 | 0.784 | 0.629 | 0.389 |
| NCI-H1395 | 0.495 | 0.436 | 0.49 | 0.373 |  |  |  |  | 1.14 | 0.919 | 1 | 1.01 | 0.894 | 0.805 | 0.97 | 0.972 | 1.07 | 0.772 | 0.913 | 0.555 |
| NCI-H1792 | 0.29 | 0.24 | 0.327 | 0.103 | 0.948 | 0.764 | 0.735 | 0.882 | 0.531 | 0.439 | 0.48 | 0.539 |  |  |  |  | 0.987 | 0.788 | 0.858 | 0.416 |
| IA-LM |  |  |  |  | 0.792 | 0.725 | 0.916 | 0.659 | 0.657 | 0.559 | 0.717 | 0.236 | 1.1 | 0.886 | 1.14 | 0.716 | 1.03 | 0.749 | 1.08 | 0.409 |
